Data published in ChEMBL document CHEMBL4219226, “Terpenoids isolated from Chinese liverworts Lepidozia reptans and their anti-inflammatory activity” (Bioorg Med Chem, 2018).
Calls of active or inactive are those of the source. The calls are words filed in the database; no cut-off is given here.

Columns and labels:
RAW264.7 [1] = test: Antiinflammatory activity in mouse RAW264.7 cells assessed as inhibition of LPS-induced nitric oxide production after 24 hrs by Griess method; format: functional, cell-based; conditions: RAW264.7, 24 h
THP-1 [2] = test: Antiinflammatory activity in human THP1 cells assessed as inhibition of LPS-induced IL-alpha mRNA level preincubated for 1 hr followed by LPS stimulation measured after 12 hrs by qPCR method; format: functional, cell-based
THP-1 [3] = test: Antiinflammatory activity in human THP1 cells assessed as inhibition of LPS-induced IL-beta mRNA level preincubated for 1 hr followed by LPS stimulation measured after 12 hrs by qPCR method; format: functional, cell-based
THP-1 [4] = test: Antiinflammatory activity in human THP1 cells assessed as inhibition of LPS-induced IL-6 mRNA level preincubated for 1 hr followed by LPS stimulation measured after 12 hrs by qPCR method; format: functional, cell-based
THP-1 [5] = test: Antiinflammatory activity in human THP1 cells assessed as inhibition of LPS-induced TNF-alpha mRNA level preincubated for 1 hr followed by LPS stimulation measured after 12 hrs by qPCR method; format: functional, cell-based
THP-1 [6] = test: Antiinflammatory activity in human THP1 cells assessed as inhibition of LPS-induced […] mRNA level at 50 to 100 uM preincubated for 1 hr followed by LPS stimulation measured after 12 hrs by qPCR method; format: functional, cell-based
THP-1 [7] = test: Antiinflammatory activity in human THP1 cells assessed as inhibition of LPS-induced COX-2 protein level at 50 to 100 uM preincubated for 1 hr followed by LPS stimulation measured after 12 hrs by Western blot method; format: functional, cell-based
[8] = target: Transcription factor p65 (Homo sapiens) (UniProt Q04206); test: Inhibition of LPS-induced NFkB p65 phosphorylation in cytoplasm of human THP1 cells preincubated for 1 hr followed by LPS stimulation measured after 12 hrs by Western blot method
Transcription factor p65 (Homo sapiens), sequence (Q04206 whole entry, the tested form may be a part): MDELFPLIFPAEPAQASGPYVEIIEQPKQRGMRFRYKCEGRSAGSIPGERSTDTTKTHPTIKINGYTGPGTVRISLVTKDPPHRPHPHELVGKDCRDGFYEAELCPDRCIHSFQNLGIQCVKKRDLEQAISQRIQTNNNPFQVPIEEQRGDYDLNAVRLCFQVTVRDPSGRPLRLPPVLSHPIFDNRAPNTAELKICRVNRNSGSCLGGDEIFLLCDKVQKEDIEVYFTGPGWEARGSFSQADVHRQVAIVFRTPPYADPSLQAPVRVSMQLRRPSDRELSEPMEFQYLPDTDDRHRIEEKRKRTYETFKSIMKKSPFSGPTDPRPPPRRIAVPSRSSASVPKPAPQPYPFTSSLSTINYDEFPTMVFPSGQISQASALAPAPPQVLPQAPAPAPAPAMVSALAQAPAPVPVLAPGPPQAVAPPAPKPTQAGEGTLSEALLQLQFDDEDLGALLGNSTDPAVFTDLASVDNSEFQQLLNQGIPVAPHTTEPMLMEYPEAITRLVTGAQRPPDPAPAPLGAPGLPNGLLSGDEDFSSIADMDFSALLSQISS

[9] = target: Transcription factor p65 (Homo sapiens) (UniProt Q04206); test: Inhibition of LPS-induced NFkB p65 nuclear translocation in human THP1 cells preincubated for 1 hr followed by LPS stimulation measured after 12 hrs by Western blot method; format: cell-based
THP-1 [10] = test: Inhibition of LPS-induced STAT1 nuclear translocation in human THP1 cells at 50 to 100 uM preincubated for 1 hr followed by LPS stimulation measured after 12 hrs by Western blot method; format: functional, cell-based
THP-1 [11] = test: Inhibition of LPS-induced STAT3 nuclear translocation in human THP1 cells at 50 to 100 uM preincubated for 1 hr followed by LPS stimulation measured after 12 hrs by Western blot method; format: functional, cell-based
THP-1 [12] = test: Inhibition of LPS-induced TFEB nuclear translocation in human THP1 cells at 50 to 100 uM preincubated for 1 hr followed by LPS stimulation measured after 12 hrs by Western blot method; format: functional, cell-based
[13] = target: T1, Transcription factor E3 (Homo sapiens) (UniProt P19532); test: Inhibition of LPS-induced TFE3 nuclear translocation in human THP1 cells at 50 to 100 uM preincubated for 1 hr followed by LPS stimulation measured after 12 hrs by Western blot method; format: cell-based
T1 sequence (whole entry): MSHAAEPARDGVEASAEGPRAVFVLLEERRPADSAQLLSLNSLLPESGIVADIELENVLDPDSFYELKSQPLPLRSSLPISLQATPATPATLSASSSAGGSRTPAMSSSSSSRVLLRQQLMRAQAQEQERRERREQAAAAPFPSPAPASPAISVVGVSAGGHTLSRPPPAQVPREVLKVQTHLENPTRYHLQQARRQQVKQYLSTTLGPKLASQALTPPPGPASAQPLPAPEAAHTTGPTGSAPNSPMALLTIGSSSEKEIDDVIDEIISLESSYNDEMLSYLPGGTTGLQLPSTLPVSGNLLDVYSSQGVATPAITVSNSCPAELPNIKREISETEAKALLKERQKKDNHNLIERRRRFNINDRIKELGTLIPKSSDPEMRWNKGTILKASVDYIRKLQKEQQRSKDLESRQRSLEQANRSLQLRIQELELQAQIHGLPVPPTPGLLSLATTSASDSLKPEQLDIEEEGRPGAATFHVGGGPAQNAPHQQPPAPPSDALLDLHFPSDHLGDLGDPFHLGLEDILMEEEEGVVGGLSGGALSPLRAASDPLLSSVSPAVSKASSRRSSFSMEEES

[14] = target: T1, Transcription factor E3 (Homo sapiens); test: Inhibition of GFP-fused TFE3 (unknown origin) expressed in HEK293T cells assessed as reduction in LPS-induced TFE3 nuclear translocation at 100 uM preincubated for 1 hr followed by LPS stimulation measured after 12 hrs by DAPI staining based confocal microscopic method; format: cell-based
[15] = target: Transcription factor p65 (Homo sapiens) (UniProt Q04206); test: Inhibition of GFP-fused NFkB p65 (unknown origin) expressed in HEK293T cells assessed as reduction in LPS-induced p65 nuclear translocation at 100 uM preincubated for 1 hr followed by LPS stimulation measured after 12 hrs by DAPI staining based confocal microscopic method; format: cell-based
RAW264.7 [16] = test: Cytotoxicity against mouse RAW264.7 cells assessed as reduction in cell viability by MTT assay; format: cell-based
THP-1 [17] = test: Antiinflammatory activity in human THP1 cells assessed as inhibition of LPS-induced […] mRNA level at 12 to 25 uM preincubated for 1 hr followed by LPS stimulation measured after 12 hrs by qPCR method; format: functional, cell-based
[18] = target: T1, Transcription factor E3 (Homo sapiens); test: Inhibition of LPS-induced TFE3 nuclear translocation in human THP1 cells at 12 to 25 uM preincubated for 1 hr followed by LPS stimulation measured after 12 hrs by Western blot method; format: cell-based

Row | Structure (SMILES) | IC50 (RAW264.7 [1]) | inhibition (THP-1 [2]) | inhibition (THP-1 [3]) | inhibition (THP-1 [4]) | inhibition (THP-1 [5]) | inhibition (THP-1 [6]) | inhibition (THP-1 [7]) | inhibition [8] | inhibition [9] | inhibition (THP-1 [10]) | inhibition (THP-1 [11]) | inhibition (THP-1 [12]) | inhibition [13] | inhibition [14] | inhibition [15] | IC50 (RAW264.7 [16]) | inhibition (THP-1 [17]) | inhibition [18]
1 | C/C1=C/C(=O)C/C(C)=C/C[C@]2(C)CC[C@](O)(C(C)C)[C@H]2CC1 | 34.9 µM | Dose-dependent effect | Dose-dependent effect | Dose-dependent effect | Dose-dependent effect | Active | Active | Dose-dependent effect | Dose-dependent effect | inactive | inactive | inactive | Active | Active | Active | > 100 µM |  | 
2 | O=c1cc(-c2ccc(O)c(O)c2)oc2cc(O)cc(O)c12 [LUTEOLIN] | 14.4 µM |  |  |  |  |  |  |  |  |  |  |  |  |  |  | > 50 µM | Active | Active
3 | CC1=C(C)C(=O)C(CC[C@@](C)(O)CCC[C@@H](C)CCC[C@@H](C)CCCC(C)C)=C(C)C1=O | > 100 µM |  |  |  |  |  |  |  |  |  |  |  |  |  |  | > 100 µM |  | 
